Laboratory results: patent publication US20250188169A1, “METHOD FOR TREATING CLONAL HEM[…] DISORDERS” (THE CHILDREN'S MEDICAL CENTER CORPORATION, priority 2022, published 2025)
“Also recorded” adds a separate entry of the source.

What was measured:
asxl1-mutant clones = experiment: asxl1-mutant clonal dynamics in peripheral blood of mosaic asxl1-mutant zebrafish (VAF by sequencing); type: in vivo
Experimental: (§1) Zebrafish were generated with mosaic mutations in asxl1 using the TWISTR method (Avagyan et a1 Science 2021, PMID 34735227). Briefly, they were injected with guide-RNAs targeting asxl1 gene with Cas9 mRNA into 1-cell embryos of zebrafish, and grown to adulthood. At 3 months retroortibital bleeding was performed on the adult zebrafish and measure the size of the mutant clones in the peripheral blood by sequencing the genomic DNA at the targeting locus of asxl1. Zebrafish with at least 1 mutant allele of 5% of greater allele size were chosen for the cohorts, randomly assigned to be treated with either DMSO or NR4A1 inhibitor (DIM-C). The dose of DIM-C was determined in a previously conducted pilot experiment. Zebrafish with mosaic mutations in asxl1 are treated with either DMSO or an NR4A1 inhibitor (DIM-C) and analyzed over a three-month period. Peripheral blood was collected every month to determine the size of the mutant clones over time. […] RO=retro-orbital bleed, RO1=first RO, pre-treatment, RO2 through RO4=monthly RO bleeds following treatment.
Clonal hematopoiesis. Zebrafish were generated with mosaic mutations in asxl1 using the TWISTR method (Avagyan et a1 Science 2021, PMID 34735227). Briefly, they were injected with guide-RNAs targeting asxl1 gene with Cas9 mRNA into 1-cell embryos of zebrafish, and grown to adulthood. At 3 months retroortibital bleeding was performed on the adult zebrafish and the size of the mutant clones in the peripheral blood was measured by sequencing the genomic DNA at the targeting locus of asxl1. Zebrafish with at least 1 mutant allele of 5% of greater allele size were chosen for the cohorts, randomly assigned to be treated with either DMSO or NR4A1 inhibitor (DIM-C). Zebrafish with mosaic mutations in asxl1 were treated with either DMSO or an NR4A1 inhibitor (DIM-C) and analyzed over a three-month period. Peripheral blood was collected every month to determine the size of the mutant clones over time.
It was previously shown by early genetic targeting nr4a1 during development prevented clonal growth of mutant cells. Next, the hypothesis that pharmacologic inhibition of nr4a1 would halt or reduce mutant clonal growth over time was tested (FIG. 1). To test this hypothesis, a cohort of asxl1 mutant zebrafish were generated and screened for the presence of asxl1 mutant clone at at least 5% VAF in peripheral blood. The positively screened mutant fish were then treated either with DMSO or minimally toxic dose of DIM-c (Tocris compound) at 9.5 uM concentration overnight, between 14-16 hours long, 5 days of the week for 6 months. Peripheral blood from both groups was collected by retroorbital bleeding every month for measurement of the mutant clones in the blood by next generation sequencing (FIG. 2). N=are the numbers of fish at the initiation of treatment. A more detailed experimental schema with exact dates in order to calculate exact ages of the fish or post treatment timepoints is shown in FIG. 10.

[1] = test system: marrow myelomonocytes, lymphocytes and progenitor/precursors; experiment: Marrow cellular composition by flow cytometry; type: in vivo, zebrafish; conditions: 8 months post treatment
Experimental: FIG. 11 examines the survival curve of the fish in two cohorts. An event was finding the fish dead or moribund after overnight treatment; no fish died during the day or off treatment days or as a consequence of retroorbital bleeding. No statistical difference was found with p values >0.05 by two different tests between the groups. 17 DMSO and 13 DIMC fish were left for final analysis. Additionally, marrow cellular composition was analyzed at 8 months post treatment by flow cytometry.

zebrafish = experiment: Tolerability and survival of treated asxl1-mutant zebrafish; type: in vivo; conditions: over the three-month treatment period
Experimental: as §1
It was previously shown by early genetic targeting nr4a1 during development prevented clonal growth of mutant cells. […]
FIG. 11 examines the survival curve of the fish in two cohorts. […] Additionally, marrow cellular composition was analyzed at 8 months post treatment by flow cytometry.

## Oc1ccc(C(c2c[nH]c3ccccc23)c2c[nH]c3ccccc23)cc1 [DIM-C, 1,1-bis(3′-indolyl)-1-(p-hydroxyphenyl)methane]
asxl1-mutant clones; DIM-C treated zebrafish, three-month period, null hypothesis: no change
  change in asxl1 frameshift indel containing clone size compared to 0 (Wilcoxon rank test): no significant change
asxl1-mutant clones; DIM-C treatment, three-month period, peripheral blood
  change of asxl1-mutant clones with non-frameshift indels over time: similarly unchanged over time; also recorded: did not change significantly over time
asxl1-mutant clones; DIM-C vs DMSO, three-month period, monthly retro-orbital bleeds, peripheral blood
  expansion of asxl1-mutant clones with frameshift indels (VAF over time): less pronounced and plateaus by 3 months; also recorded: less expansion of asxl1-mutant clones
asxl1-mutant clones; DIM-C, all zebrafish (n=12), three-month period
  asxl1-mutant clonal expansion, clones with frameshift and non-frameshift indels, all zebrafish: significantly abated asxl1-mutant clonal expansion
asxl1-mutant clones; DIMC treatment arm, compared to 0 (no change over time), one sample t and Wilcoxon test
  change in size of the largest clone over treatment: had not changed significantly
asxl1-mutant clones; three-month period, clones with VAF of 5% or greater in at least 1 time point
  percent change of clone size (VAF at RO4 compared to VAF at RO1), frameshift-indel clones, compared to DMSO: significantly less expansion
[1]
  marrow cellular composition, difference between treatment groups: no difference between the treatment groups
zebrafish
  physical abnormalities in treated zebrafish: No physical abnormalities were observed
